Patent US12559496B2, “Imidazopyrimidines as modulators of IL-17” (Janssen Pharmaceutica NV, priority 2020, dated 2026)

Tests used:
[1] = tested on: IL-17A-induced G-CSF production in human normal keratinocytes (NHK); test: NHK Assay: IL-17A-induced G-CSF production in human normal keratinocytes; format: cell-based; conditions: 24 h, IL-17A 5 ng/mL, 5% FBS, simple average if tested more than once
Method: IL-17A acts directly on keratinocytes through binding to dimeric receptor IL-17RA/RC and drives the production of a number of inflammatory mediators known to be elevated in psoriasis lesional tissue. IL-17A small molecule inhibitors that block the IL-17A to interact with IL-17R would inhibit the IL-17A signaling in its targeted cells such as keratinocytes. The compound functional activity is evaluated for its impact on IL-17A-induced G-CSF production in human normal keratinocytes (NHK).
Adult normal human keratinocytes are cultured in keratinocyte growth medium (Lonza) in a flask till reaching ˜ 90% confluence, then cells are transferred to a 384-well plate at density of 3000-4000 cell/well. Recombinant human IL-17A (Gibco PHC9174) is pre-incubated with titrated compound or DMSO for 1 h at rt then added to the cell culture plate. The final concentration of IL-17A is 5 ng/mL and DMSO is 0.2%, in the culture containing 5% FBS. Cells are cultured/treated for 24 h at 37° C. Supernatants are collected and G-CSF production is measured through HTRF technology using Human G-CSF Kit (CisBio). G-CSF concentration was extrapolated from the standard curve and IC50 is determined using GraphPad Prism. Cell viability is also evaluated using CellTiter-Glo kit (Promega) and effect of compound on cell viability is compared to DMSO control.

[2] = target: IL-17A(FLAG-Tagged): IL-17RA(His-Tagged) (Homo sapiens, UniProt Q16552, K93Q); test: IL-17A(FLAG-Tagged): IL-17RA(His-Tagged) Binding Disruption Eu-HTRF Assay; conditions: disruption of IL-17A/IL-17RA binding; simple average if tested more than once
Source text: IL-17A(FLAG-Tagged): IL-17RA(His-Tagged) Binding Disruption Eu-HTRF Assay
An antibody directed against the FLAG tag of IL-17A (SEQ ID NO: 1) is labeled with the HTRF donor chromophore (Europium-cryptate). IL-17A is present as a dimer that is “locked into” this quaternary structure due to the formation of loop-spanning […] disulfide bridges. The construct of IL-17RA used in the assay excludes the […] portion of the receptor and is fused to a C-terminal 10×His tag (SEQ ID NO:2). An antibody directed against the His tag of the IL-17RA chimera is labeled with the HTRF acceptor chromophore (“D2”). The fluorescence-resonance energy transfer (FRET) depends on the vicinity of the donor chromophore to the acceptor, and interruption of the binding between the IL-17A and IL-17RA causes the reduction/loss of FRET. Therefore, this assay allows to evaluate the compound effect on the binding IL-17A and IL-17RA by monitoring the fluorescence intensity of donor vs acceptor. The assay is run as described below.
40 nL of 2-fold serial diluted compound solution for total 22 dilution points is added into each well of a 1536-well, white, low-volume, non-binding plate (Greiner #782904), then 2 μL of FLAG tagged IL-17A at 2× final concentration (2.5 nM) in solution of PBS+0.01% Triton-X100 is added to each well. The assay plate is briefly centrifuged then incubated for 1 h at rt. A mixed solution is prepared containing 2×5 nM 10HIS×IL-17RA, 2×2.5 nM Eu-anti-FLAG (CISBIO), 2×5 nM D2-anti-HIS (CISBIO) in PBS+0.01% Triton-X100+200 mM Potassium Fluoride (Sigma 60238) and 2 μL of mix is added to each well of the assay plate. The plate is briefly centrifuged then incubated for 2 h at rt. The HTRF intensities at the wavelength of donor (620 nm) and acceptor (665 nm) are measured using BMG Pherastar. The ratio between intensities at two wavelengths is calculated and plotted against the compound concentration and the data is fitted to a one-site competition model to yield IC50 of the compound.

Chain of UniProt Q16552 (Q16552 with tags, fused parts or gaps K93Q): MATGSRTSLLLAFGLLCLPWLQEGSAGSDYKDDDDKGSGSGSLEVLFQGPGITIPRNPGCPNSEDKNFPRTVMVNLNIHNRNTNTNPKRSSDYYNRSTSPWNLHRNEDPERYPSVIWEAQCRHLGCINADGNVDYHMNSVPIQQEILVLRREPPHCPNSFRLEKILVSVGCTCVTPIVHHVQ

SMILES | IC50 [2] [µM] | IC50 ([1]; Homo sapiens, Keratinocyte) [µM] | IC50 [1] [µM]
Cc1c(C(=O)N[C@H](c2cn3ccc(C(NC(=O)CCC(F)(F)F)C4CC4)nc3n2)C2CCC(F)(F)CC2)cnn1CCC(F)(F)F (single isomer, unassigned) [Example 39, N—((S)-(7-((R*)-Cyclopropyl(4,4,4-trifluorobutanamido)methyl)imidazo[1,2-a]pyrimidin-2-yl)(4,4-difluorocyclohexyl)methyl)-5-methyl-1-(3,3,3-trifluoropropyl)-1H-pyrazole-4-carboxamide] | 13 |  | ~20
Cc1nonc1C(=O)N[C@H](c1cn2ccc([C@@H](NC(=O)CC3CC(F)(F)C3)C3CC3)nc2n1)C1CCC(F)(F)CC1 [Example 22, N—((S)-(7-((S)-Cyclopropyl(2-(3,3-difluorocyclobutyl)acetamido)methyl)imidazo[1,2-a]pyrimidin-2-yl)(4,4-difluorocyclohexyl)methyl)-4-methyl-1,2,5-oxadiazole-3-carboxamide] | 6.2 | > 20 | 
CC(C)n1nccc1C(=O)N[C@H](c1nc2nc([C@H](NC(=O)CCC(F)(F)F)C3CC3)ccn2c1F)C1CCC(F)(F)CC1 [Example 35, N—((S)-(7-((R)-Cyclopropyl(4,4,4-trifluorobutanamido)methyl)-3-fluoroimidazo[1,2-a]pyrimidin-2-yl)(4,4-difluorocyclohexyl)methyl)-1-isopropyl-1H-pyrazole-5-carboxamide] | 0.81 | 0.95 | 
CC(CC(=O)N[C@H](c1ccn2cc([C@@H](NC(=O)c3ccnc(CC(F)(F)F)c3)C3CCC(F)(F)CC3)nc2n1)C1CC1)C(F)(F)F (single isomer, unassigned) [Example 4, N—((S)-(7-((S)-Cyclopropyl((S*)-4,4,4-trifluoro-3-methylbutanamido)methyl)imidazo[1,2-a]pyrimidin-2-yl)(4,4-difluorocyclohexyl)methyl)-2-(2,2,2-trifluoroethyl)isonicotinamide] | 1.8 |  | 1.2

Second part, led by results:

IC50 [2] [µM] | SMILES | IC50 ([1]; Homo sapiens, Keratinocyte) [µM] | IC50 [1] [µM]
0.49 | Cc1conc1C(=O)N[C@H](c1cn2ccc([C@H](NC(=O)CC3CC3(F)F)C3CC3)nc2n1)C1CCC(F)(F)CC1 (single isomer, unassigned) [Example 53, N—((S)-(7-((R)-Cyclopropyl(2-((S*)-2,2-difluorocyclopropyl)acetamido)methyl)imidazo[1,2-a]pyrimidin-2-yl)(4,4-difluorocyclohexyl)methyl)-4-methylisoxazole-3-carboxamide] | 2.3 | 
0.38 | Cc1nonc1C(=O)N[C@H](c1cn2ccc([C@H](NC(=O)C[C@H](C)C(F)F)C3CC3)nc2n1)C1CCC(F)(F)CC1 [Example 60, N—((S)-(7-((R)-Cyclopropyl((S)-4,4-difluoro-3-methylbutanamido)methyl)imidazo[1,2-a]pyrimidin-2-yl)(4,4-difluorocyclohexyl)methyl)-4-methyl-1,2,5-oxadiazole-3-carboxamide] | 0.76 | 
0.73 | O=C(CC1CC1(F)F)N[C@@H](c1ccn2cc([C@@H](NC(=O)c3ncnn3CC3CC3)C3CCC(F)(F)CC3)nc2n1)C1CC1 (single isomer, unassigned) [Example 56, N—((S)-(7-((R)-Cyclopropyl(2-((R*)-2,2-difluorocyclopropyl)acetamido)methyl)imidazo[1,2-a]pyrimidin-2-yl)(4,4-difluorocyclohexyl)methyl)-1-(cyclopropylmethyl)-1H-1,2,4-triazole-5-carboxamide] |  | 1.8
2.9 | Cn1nccc1C(=O)N[C@H](c1cn2ccc(C(NC(=O)CCC(F)(F)F)C3CC3)nc2n1)C1CCC(F)(F)CC1 (single isomer, unassigned) [Example 45, N—((S)-(7-((R*)-Cyclopropyl(4,4,4-trifluorobutanamido)methyl)imidazo[1,2-a]pyrimidin-2-yl)(4,4-difluorocyclohexyl)methyl)-1-methyl-1H-pyrazole-5-carboxamide] |  | 2.1
